# Marks after values point to notes of the source that are not given here.
# Experiment: Peak absorption wavelength, peak emission wavelength and fluorescent quantum yield
# Type: physicochemical
# Settings: solvent acetonitrile
# Source text: Table 2 provides a peak absorption wavelength (λabs maximum), peak emission wavelength (λem maximum), a fluorescent quantum yield (ΦF), and a synthesis yield for the various compounds. The synthesis yield is based on the synthetic pathway illustrated in FIG. 1.
ΦF,λabs maximum [nm],λem maximum [nm],Compound
8** %,380,468,"COC(=O)C(C)(C)C1Oc2ccc(C)cc2C(=O)/C1=C\NS(=O)(=O)c1ccc(C)cc1 (stereo not drawn) [Compound 19, (Z)-methyl 2-methyl-2-(6-methyl-3-((4-methylphenylsulfonamido)methy-lene)-4-oxochroman-2-yl)propanoate]"

# Same assay, conditions: solvent cyclohexane
ΦF,λabs maximum [nm],λem maximum [nm],Compound
27*** %,364,479,"COC(=O)C(C)(C)C1Oc2ccc(C)cc2C(=O)/C1=C\NS(=O)(=O)c1ccc(C)cc1 (stereo not drawn) [Compound 19, (Z)-methyl 2-methyl-2-(6-methyl-3-((4-methylphenylsulfonamido)methy-lene)-4-oxochroman-2-yl)propanoate]"

# Same assay, conditions: solvent dichloromethane
ΦF,λabs maximum [nm],λem maximum [nm],Compound
6* %,362,446,"COC(=O)C(C)(C)C1Oc2ccccc2C(=O)/C1=C\O (stereo not drawn) [Compound 5, (Z)-methyl 2-(3-(hydroxymethylene)-4-oxochroman-2-yl)-2-methylpropanoate]"
2* %,364,486,"COC(=O)C(C)(C)C1Oc2ccc(F)cc2C(=O)/C1=C\O (stereo not drawn) [Compound 6, (Z)-methyl 2-(6-fluoro-3-(hydroxymethylene)-4-oxochroman-2-yl)-2-methylpropanoate]"
3* %,371,451,"COC(=O)C(C)(C)C1Oc2c(Br)cc(Br)cc2C(=O)/C1=C\O (stereo not drawn) [Compound 14, (Z)-methyl 2-(6,8-dibromo-3-(hydroxymethylene)-4-oxochroman-2-yl)-2-methylpropanoate]"
37* %,358,479,"COC(=O)C(C)(C)C1Oc2ccccc2C(=O)/C1=C\NS(=O)(=O)c1ccc(C)cc1 (stereo not drawn) [Compound 15, (Z)-methyl 2-methyl-2-(3-((4-methylphenylsulfonamido)methy-lene)-4-oxochroman-2-yl)propanoate]"
33* %,367,492,"COC(=O)C(C)(C)C1Oc2ccc(F)cc2C(=O)/C1=C\NS(=O)(=O)c1ccc(C)cc1 (stereo not drawn) [Compound 16, (Z)-methyl 2-(6-fluoro-3-((4-methylphenylsulfonamido)methy-lene)-4-oxochroman-2-yl)-2-methylpropanoate]"
39* %,367,483,"COC(=O)C(C)(C)C1Oc2ccc(Cl)cc2C(=O)/C1=C\NS(=O)(=O)c1ccc(C)cc1 (stereo not drawn) [Compound 17, (Z)-methyl 2-(6-chloro-3-((4-methylphenylsulfonamido)methy-lene)-4-oxochroman-2-yl)-2-methylpropanoate]"
34* %,343,483,"COC(=O)C(C)(C)C1Oc2ccc(Br)cc2C(=O)/C1=C\NS(=O)(=O)c1ccc(C)cc1 (stereo not drawn) [Compound 18, (Z)-methyl 2-(6-bromo-3-((4-methylphenylsulfonamido)methy-lene)-4-oxochroman-2-yl)-2-methylpropanoate]"
70* %,367,492,"COC(=O)C(C)(C)C1Oc2ccc(C)cc2C(=O)/C1=C\NS(=O)(=O)c1ccc(C)cc1 (stereo not drawn) [Compound 19, (Z)-methyl 2-methyl-2-(6-methyl-3-((4-methylphenylsulfonamido)methy-lene)-4-oxochroman-2-yl)propanoate]"
71* %,368,490,"COC(=O)C(C)(C)C1Oc2ccc(C(C)C)cc2C(=O)/C1=C\NS(=O)(=O)c1ccc(C)cc1 (stereo not drawn) [Compound 21, (Z)methyl-2-(6-isopropyl-3-(((4-methylphenyl)sulfonamido)methy-lene)-4-oxochroman-2-yl)-2-methylpropanoate]"
66* %,390,529,"COC(=O)C(C)(C)C1Oc2ccc(OC)cc2C(=O)/C1=C\NS(=O)(=O)c1ccc(C)cc1 (stereo not drawn) [Compound 22, (Z)-methyl-2-(6-methoxy-3-(((4-methylphenyl)sulfonamido)methy-lene)-4-oxochroman-2-yl)-2-methylpropanoate]"
38* %,358,479,"COC(=O)C(C)(C)C1Oc2ccccc2C(=O)/C1=C\NS(=O)(=O)c1ccc(OC)cc1 (stereo not drawn) [Compound 23, (Z)methyl-2-(3-(((4-methoxyphenyl)sulfonamido)methy-lene)-4-oxochroman-2-yl)-2-methylpropanoate]"
